Source: the kinase profiling compilation of Christmann-Franck et al. (2016)

Columns and labels:
Assay in all cases: KINOMEscan competition binding
Details in all cases: compound 10.0 µM
BLK (human) = BLK (human) (UniProt P51451)
BMPR1B (human) = BMPR1B (human) (UniProt O00238)
BRSK1 (human) = BRSK1 (human) (UniProt Q8TDC3)
BRSK2 (human) = BRSK2 (human) (UniProt Q8IWQ3)
CAMK1D (human) = CAMK1D (human) (UniProt Q8IU85)
CDC42BPB (human) = CDC42BPB (human) (UniProt Q9Y5S2)
CDK15 (human) = CDK15 (human) (UniProt Q96Q40)
CLK1 (human) = CLK1 (human) (UniProt P49759)
CSNK1G2 (human) = CSNK1G2 (human) (UniProt P78368)
CSNK2A1 (human) = CSNK2A1 (human) (UniProt P68400)
DCLK2 (human) = DCLK2 (human) (UniProt Q8N568)
EPHA2 (human) = EPHA2 (human) (UniProt P29317)
EPHA7 (human) = EPHA7 (human) (UniProt Q15375)
EPHA7 (human), sequence (Q15375 whole entry, looked up): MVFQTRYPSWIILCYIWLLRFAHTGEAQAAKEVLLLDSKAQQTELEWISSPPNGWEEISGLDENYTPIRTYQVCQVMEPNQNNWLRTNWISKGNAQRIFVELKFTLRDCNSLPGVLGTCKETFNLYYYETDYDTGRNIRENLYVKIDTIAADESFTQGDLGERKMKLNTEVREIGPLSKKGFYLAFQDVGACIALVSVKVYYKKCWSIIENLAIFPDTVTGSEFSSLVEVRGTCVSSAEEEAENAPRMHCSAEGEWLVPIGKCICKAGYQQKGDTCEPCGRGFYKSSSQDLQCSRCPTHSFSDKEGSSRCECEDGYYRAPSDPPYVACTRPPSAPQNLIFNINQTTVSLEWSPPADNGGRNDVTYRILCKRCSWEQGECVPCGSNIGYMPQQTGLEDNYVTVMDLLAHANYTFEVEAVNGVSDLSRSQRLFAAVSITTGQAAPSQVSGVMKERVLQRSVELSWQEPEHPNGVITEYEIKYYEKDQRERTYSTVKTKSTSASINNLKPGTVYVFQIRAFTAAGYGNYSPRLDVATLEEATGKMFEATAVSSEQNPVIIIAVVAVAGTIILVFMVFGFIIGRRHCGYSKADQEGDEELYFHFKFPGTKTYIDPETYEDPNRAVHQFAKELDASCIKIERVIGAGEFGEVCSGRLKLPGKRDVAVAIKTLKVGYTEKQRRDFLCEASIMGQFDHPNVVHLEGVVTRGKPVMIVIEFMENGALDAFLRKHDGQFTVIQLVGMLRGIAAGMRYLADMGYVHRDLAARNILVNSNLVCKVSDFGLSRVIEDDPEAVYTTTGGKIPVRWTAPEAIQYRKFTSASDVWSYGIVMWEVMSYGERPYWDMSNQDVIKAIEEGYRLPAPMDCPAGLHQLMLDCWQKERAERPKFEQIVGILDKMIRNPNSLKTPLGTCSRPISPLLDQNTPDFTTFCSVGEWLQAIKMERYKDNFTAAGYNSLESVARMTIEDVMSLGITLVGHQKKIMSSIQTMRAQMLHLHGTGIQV

EPHB1 (human) = EPHB1 (human) (UniProt P54762)
EPHB3 (human) = EPHB3 (human) (UniProt P54753)
EPHB3 (human), sequence (P54753 whole entry, looked up): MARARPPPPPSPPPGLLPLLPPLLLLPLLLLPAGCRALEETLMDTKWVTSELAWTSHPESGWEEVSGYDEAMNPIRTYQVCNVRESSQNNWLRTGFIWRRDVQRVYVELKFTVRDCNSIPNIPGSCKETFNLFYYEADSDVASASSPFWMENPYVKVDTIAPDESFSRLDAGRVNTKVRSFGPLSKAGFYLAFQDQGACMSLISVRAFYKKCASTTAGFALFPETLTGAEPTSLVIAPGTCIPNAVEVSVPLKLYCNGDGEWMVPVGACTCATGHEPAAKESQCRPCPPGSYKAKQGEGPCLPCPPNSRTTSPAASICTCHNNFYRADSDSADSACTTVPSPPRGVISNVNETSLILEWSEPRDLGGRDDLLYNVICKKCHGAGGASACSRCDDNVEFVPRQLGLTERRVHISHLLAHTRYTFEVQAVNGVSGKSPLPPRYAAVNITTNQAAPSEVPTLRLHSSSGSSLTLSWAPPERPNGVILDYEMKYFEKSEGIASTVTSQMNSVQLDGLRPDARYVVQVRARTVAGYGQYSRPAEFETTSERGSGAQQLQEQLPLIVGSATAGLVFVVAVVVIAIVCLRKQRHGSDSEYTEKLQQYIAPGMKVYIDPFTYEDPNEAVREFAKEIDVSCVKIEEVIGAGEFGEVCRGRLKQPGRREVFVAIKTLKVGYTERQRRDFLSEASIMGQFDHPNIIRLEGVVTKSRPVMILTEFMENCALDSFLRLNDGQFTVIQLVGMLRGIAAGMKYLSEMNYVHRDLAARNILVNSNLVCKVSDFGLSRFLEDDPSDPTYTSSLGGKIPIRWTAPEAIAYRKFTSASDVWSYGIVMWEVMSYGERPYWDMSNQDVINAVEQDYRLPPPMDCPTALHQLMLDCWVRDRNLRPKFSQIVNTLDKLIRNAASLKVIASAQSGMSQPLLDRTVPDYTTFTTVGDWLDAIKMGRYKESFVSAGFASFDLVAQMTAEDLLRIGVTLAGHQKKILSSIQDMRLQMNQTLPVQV

FLT1 (human) = FLT1 (human) (UniProt P17948)
ITK (human) = ITK (human) (UniProt Q08881)
MAPK3 (human) = MAPK3 (human) (UniProt P27361)
MAPK6 (human) = MAPK6 (human) (UniProt Q16659)
MAPK6 (human), sequence (Q16659 whole entry, looked up): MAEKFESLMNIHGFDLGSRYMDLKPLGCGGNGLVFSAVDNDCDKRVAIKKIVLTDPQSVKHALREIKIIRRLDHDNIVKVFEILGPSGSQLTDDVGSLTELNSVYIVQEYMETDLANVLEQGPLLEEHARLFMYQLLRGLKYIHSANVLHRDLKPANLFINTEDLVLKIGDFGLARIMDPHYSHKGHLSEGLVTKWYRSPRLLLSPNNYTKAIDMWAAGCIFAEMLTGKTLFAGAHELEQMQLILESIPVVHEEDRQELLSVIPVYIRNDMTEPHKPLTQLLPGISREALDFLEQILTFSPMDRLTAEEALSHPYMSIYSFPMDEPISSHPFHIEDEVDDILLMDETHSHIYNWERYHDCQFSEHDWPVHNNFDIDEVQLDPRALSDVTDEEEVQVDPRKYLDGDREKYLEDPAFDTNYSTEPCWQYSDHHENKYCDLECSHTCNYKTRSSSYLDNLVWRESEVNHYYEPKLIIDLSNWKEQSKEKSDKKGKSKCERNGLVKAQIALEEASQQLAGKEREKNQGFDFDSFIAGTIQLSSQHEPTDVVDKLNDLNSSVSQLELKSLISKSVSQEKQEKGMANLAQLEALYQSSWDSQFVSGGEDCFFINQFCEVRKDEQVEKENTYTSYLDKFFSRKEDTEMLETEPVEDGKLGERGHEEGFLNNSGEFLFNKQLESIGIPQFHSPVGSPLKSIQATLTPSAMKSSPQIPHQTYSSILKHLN

MAPK9 (human) = MAPK9 (human) (UniProt P45984)
MAPK9 (human), sequence (P45984 whole entry, looked up): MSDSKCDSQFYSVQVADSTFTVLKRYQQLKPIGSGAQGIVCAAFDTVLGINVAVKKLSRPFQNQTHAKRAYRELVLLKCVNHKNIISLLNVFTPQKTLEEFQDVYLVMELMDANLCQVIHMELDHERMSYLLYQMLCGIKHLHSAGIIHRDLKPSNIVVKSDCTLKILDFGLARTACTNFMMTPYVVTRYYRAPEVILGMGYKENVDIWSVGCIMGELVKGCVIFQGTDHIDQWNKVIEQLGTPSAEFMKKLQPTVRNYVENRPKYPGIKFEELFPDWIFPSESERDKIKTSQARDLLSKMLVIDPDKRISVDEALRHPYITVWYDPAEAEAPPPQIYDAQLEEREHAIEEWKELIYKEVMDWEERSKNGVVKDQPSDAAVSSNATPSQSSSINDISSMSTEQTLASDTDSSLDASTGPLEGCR

MELK (human) = MELK (human) (UniProt Q14680)
NEK7 (human) = NEK7 (human) (UniProt Q8TDX7)
NEK9 (human) = NEK9 (human) (UniProt Q8TD19)
PHKG1 (human) = PHKG1 (human) (UniProt Q16816)
PRKAA1 (human) = PRKAA1 (human) (UniProt Q13131)
PRKCQ (human) = PRKCQ (human) (UniProt Q04759)
RIOK1 (human) = RIOK1 (human) (UniProt Q9BRS2)
RIOK2 (human) = RIOK2 (human) (UniProt Q9BVS4)
RIPK1 (human) = RIPK1 (human) (UniProt Q13546)
RIPK1 (human), sequence (Q13546 whole entry, looked up): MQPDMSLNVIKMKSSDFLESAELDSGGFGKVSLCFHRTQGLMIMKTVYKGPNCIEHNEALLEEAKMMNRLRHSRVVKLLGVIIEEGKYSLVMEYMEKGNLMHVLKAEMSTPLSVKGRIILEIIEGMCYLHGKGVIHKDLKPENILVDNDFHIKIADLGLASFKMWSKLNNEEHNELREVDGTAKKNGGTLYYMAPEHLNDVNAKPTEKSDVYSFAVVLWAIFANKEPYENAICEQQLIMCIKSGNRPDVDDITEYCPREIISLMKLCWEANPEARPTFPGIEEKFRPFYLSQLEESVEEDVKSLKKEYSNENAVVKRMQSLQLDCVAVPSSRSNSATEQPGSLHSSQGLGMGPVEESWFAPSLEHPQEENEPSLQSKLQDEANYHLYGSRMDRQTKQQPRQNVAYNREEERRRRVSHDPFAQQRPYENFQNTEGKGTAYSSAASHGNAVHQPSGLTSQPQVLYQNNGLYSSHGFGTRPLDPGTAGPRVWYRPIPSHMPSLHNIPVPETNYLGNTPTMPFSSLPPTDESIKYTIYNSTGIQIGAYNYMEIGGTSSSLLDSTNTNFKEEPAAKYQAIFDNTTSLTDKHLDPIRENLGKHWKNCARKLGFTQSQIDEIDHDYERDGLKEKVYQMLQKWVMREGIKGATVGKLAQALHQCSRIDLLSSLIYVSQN

RPS6KA2 KD1 (human) = RPS6KA2 KD1 (human) (UniProt Q15349)
SLK (human) = SLK (human) (UniProt Q9H2G2)
SRC (human) = SRC (human) (UniProt P12931)
SRC (human), sequence (P12931 whole entry, looked up): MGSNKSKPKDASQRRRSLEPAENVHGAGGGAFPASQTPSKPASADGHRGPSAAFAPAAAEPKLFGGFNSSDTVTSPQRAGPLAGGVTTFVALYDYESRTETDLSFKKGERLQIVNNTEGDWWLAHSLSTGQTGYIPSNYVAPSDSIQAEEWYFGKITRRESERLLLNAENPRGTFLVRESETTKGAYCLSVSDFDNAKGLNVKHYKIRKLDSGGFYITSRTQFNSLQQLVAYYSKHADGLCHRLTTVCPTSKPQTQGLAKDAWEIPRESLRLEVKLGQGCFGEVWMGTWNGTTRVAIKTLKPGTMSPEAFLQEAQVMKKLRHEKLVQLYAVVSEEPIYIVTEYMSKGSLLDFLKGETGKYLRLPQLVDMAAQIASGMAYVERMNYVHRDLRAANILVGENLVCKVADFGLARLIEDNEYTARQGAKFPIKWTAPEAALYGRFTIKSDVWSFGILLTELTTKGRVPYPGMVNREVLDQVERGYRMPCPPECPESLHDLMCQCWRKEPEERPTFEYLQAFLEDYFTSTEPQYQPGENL

SRMS (human) = SRMS (human) (UniProt Q9H3Y6)
STK25 (human) = STK25 (human) (UniProt O00506)
STK33 (human) = STK33 (human) (UniProt Q9BYT3)
STK33 (human), sequence (Q9BYT3 whole entry, looked up): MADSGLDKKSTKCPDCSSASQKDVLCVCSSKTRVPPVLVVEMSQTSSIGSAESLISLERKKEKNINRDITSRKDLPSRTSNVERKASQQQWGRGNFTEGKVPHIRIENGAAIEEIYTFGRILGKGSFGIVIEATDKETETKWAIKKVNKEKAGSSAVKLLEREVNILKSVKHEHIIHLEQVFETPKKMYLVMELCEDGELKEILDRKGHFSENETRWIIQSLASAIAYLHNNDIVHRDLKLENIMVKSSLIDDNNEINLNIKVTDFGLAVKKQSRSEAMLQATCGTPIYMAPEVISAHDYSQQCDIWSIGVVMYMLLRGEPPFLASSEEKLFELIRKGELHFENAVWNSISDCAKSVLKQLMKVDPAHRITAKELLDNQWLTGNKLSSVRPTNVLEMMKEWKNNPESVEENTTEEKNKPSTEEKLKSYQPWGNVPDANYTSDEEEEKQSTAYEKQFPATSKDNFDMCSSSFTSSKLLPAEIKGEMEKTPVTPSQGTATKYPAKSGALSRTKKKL

TEC (human) = TEC (human) (UniProt P42680)
ULK1 (human) = ULK1 (human) (UniProt O75385)
ULK3 (human) = ULK3 (human) (UniProt Q6PHR2)
WEE1 (human) = WEE1 (human) (UniProt P30291)
ZAP70 (human) = ZAP70 (human) (UniProt P43403)

SMILES	kinase still bound, per cent of control (BLK (human)) [%]	kinase still bound, per cent of control (BMPR1B (human)) [%]	kinase still bound, per cent of control (BRSK1 (human)) [%]	kinase still bound, per cent of control (BRSK2 (human)) [%]	kinase still bound, per cent of control (CAMK1D (human)) [%]	kinase still bound, per cent of control (CDC42BPB (human)) [%]	kinase still bound, per cent of control (CDK15 (human)) [%]	kinase still bound, per cent of control (CLK1 (human)) [%]	kinase still bound, per cent of control (CSNK1G2 (human)) [%]	kinase still bound, per cent of control (CSNK2A1 (human)) [%]	kinase still bound, per cent of control (DCLK2 (human)) [%]	kinase still bound, per cent of control (EPHA2 (human)) [%]	kinase still bound, per cent of control (EPHA7 (human)) [%]	kinase still bound, per cent of control (EPHB1 (human)) [%]	kinase still bound, per cent of control (EPHB3 (human)) [%]	kinase still bound, per cent of control (FLT1 (human)) [%]	kinase still bound, per cent of control (ITK (human)) [%]	kinase still bound, per cent of control (MAPK3 (human)) [%]	kinase still bound, per cent of control (MAPK6 (human)) [%]	kinase still bound, per cent of control (MAPK9 (human)) [%]	also measured
Cc1ccc(NC(=O)c2cccc(C(C)(C)C#N)c2)cc1Nc1ccc2ncn(C)c(=O)c2c1	1	82	91	100	100	100	100	100	100	88	100	3.2	84	1	0	4.4	100	100	100	1.8	kinase still bound, per cent of control (MELK (human)): 100%; kinase still bound, per cent of control (NEK7 (human)): 96%; kinase still bound, per cent of control (NEK9 (human)): 100%; kinase still bound, per cent of control (PHKG1 (human)): 100%; kinase still bound, per cent of control (PRKAA1 (human)): 73%; kinase still bound, per cent of control (PRKCQ (human)): 98%; kinase still bound, per cent of control (RIOK1 (human)): 100%; kinase still bound, per cent of control (RIOK2 (human)): 100%; kinase still bound, per cent of control (RIPK1 (human)): 83%; kinase still bound, per cent of control (RPS6KA2 KD1 (human)): 89%; kinase still bound, per cent of control (SLK (human)): 68%; kinase still bound, per cent of control (SRC (human)): 0.55%; kinase still bound, per cent of control (SRMS (human)): 7.4%; kinase still bound, per cent of control (STK25 (human)): 100%; kinase still bound, per cent of control (STK33 (human)): 99%; kinase still bound, per cent of control (TEC (human)): 100%; kinase still bound, per cent of control (ULK1 (human)): 94%; kinase still bound, per cent of control (ULK3 (human)): 97%; kinase still bound, per cent of control (WEE1 (human)): 100%; kinase still bound, per cent of control (ZAP70 (human)): 100%
COc1cc(C(=O)NC2CCN(C)CC2)ccc1Nc1ncc2c(n1)N(C1CCCC1)CCC(=O)N2C(C)C	100	100	100	0	100	100	100	100	100	100	100	100	100	100	100	100	100	100	100	100	kinase still bound, per cent of control (MELK (human)): 100%; kinase still bound, per cent of control (NEK7 (human)): 100%; kinase still bound, per cent of control (NEK9 (human)): 100%; kinase still bound, per cent of control (PHKG1 (human)): 100%; kinase still bound, per cent of control (PRKAA1 (human)): 100%; kinase still bound, per cent of control (PRKCQ (human)): 100%; kinase still bound, per cent of control (RIOK1 (human)): 100%; kinase still bound, per cent of control (RIOK2 (human)): 100%; kinase still bound, per cent of control (RIPK1 (human)): 100%; kinase still bound, per cent of control (RPS6KA2 KD1 (human)): 100%; kinase still bound, per cent of control (SLK (human)): 100%; kinase still bound, per cent of control (SRC (human)): 100%; kinase still bound, per cent of control (SRMS (human)): 100%; kinase still bound, per cent of control (STK25 (human)): 100%; kinase still bound, per cent of control (STK33 (human)): 32%; kinase still bound, per cent of control (TEC (human)): 100%; kinase still bound, per cent of control (ULK1 (human)): 100%; kinase still bound, per cent of control (ULK3 (human)): 100%; kinase still bound, per cent of control (WEE1 (human)): 100%; kinase still bound, per cent of control (ZAP70 (human)): 100%
